Earlier results, collected in US20150050333A1, “PHARMACEUTICAL COMPOSITION COMPRISING OLMESARTAN MEDOXOMIL AND ROSUVASTATIN OR ITS SALT” (priority 2012, published 2015).

Tested on: CYP450

Row | SMILES | Metabolism of olmesartan medoxomil by CYP450 (after in vivo absorption) | Portion of rosuvastatin that is metabolized (metabolized mainly by CYP 2C9 and CYP 2C19)
1 | CCCc1nc(C(C)(C)O)c(C(=O)OCc2oc(=O)oc2C)n1Cc1ccc(-c2ccccc2-c2nnn[nH]2)cc1 [Olmesartan medoxomil] | not metabolized by CYP450 | 
2 | CC(C)c1nc(N(C)S(C)(=O)=O)nc(-c2ccc(F)cc2)c1/C=C/[C@@H](O)C[C@@H](O)CC(=O)O [rosuvastatin] |  | 10%
